The numbers were not newly measured in US20160317408A1, “KERATIN FIBRE DYEING METHOD” (ALFA PARF GROUP S.p.A., priority 2015, published 2016), which cites them from elsewhere.

For series [1] the following is noted: value assigned from SCCS memorandum class; composition containing the dye.
The conditions of series [2]: SCCS Opinion 1509/13, Memorandum on hair dye chemical sensitisation.

On to `Nc1ccc(OCCO)c(N)c1` [2,4-diaminophenoxyethanol], for which the “individual sensitisation index value of the dye” value in series [1] is given as 2. For the same compound, the sensitising power classification entry in series [2] is “Moderate”.

For `Nc1ncccc1O` [2-Amino-3-hydroxypyridine], the sensitising power classification result in series [2] is “not classifiable”. As to `Cc1c(O)cccc1O` [2-methylresorcinol], the “individual sensitisation index value of the dye” value in series [1] is recorded as 2. Also, the sensitising power classification result in series [2] is on record as “Moderate”.

As to `Oc1ccc(Cl)c(O)c1` [4-chlororesorcinol], in series [1], the “individual sensitisation index value of the dye” value was 2. The sensitising power classification entry in series [2] is reported as “Moderate”. `Nc1ccc(N(CCO)CCO)cc1` [N,N-bis(2-hydroxyethyl)-p-phenylenediamine]: in series [1], the “individual sensitisation index value of the dye” value is listed as 1. Besides, the sensitising power classification entry in series [2] was “Strong”. As for `Nc1ccc(NCCO)cc1` [hydroxyethyl-p-phenylenediamine], the sensitising power classification result in series [2] was “Strong”. Take `Nc1ccc(N)cc1` [p-phenylenediamine]: the “individual sensitisation index value of the dye” value in series [1] is 0. Also, in series [2], the sensitising power classification entry is “Extreme”. Consider `Oc1cccc(O)c1` [resorcinol], for which the sensitising power classification result in series [2] is “Strong”.
